Laboratory results as given in patent publication US20150352134A1, “COMPOSITION FOR TOPICAL SKIN APPLICATION CONTAINING GINSENOSIDE F2 DERIVED FROM HYDROPONIC GINSENG” (AMOREPACIFIC CORPORATION, priority 2012, published 2015).
Blank lines part the entries; values can stand above or below the molecule they belong to.

Tests used:
tyrosinase [1] = assay: Tyrosinase inhibitory effect; format: biochemical, mushrooms; details: 37° C., absorbance 475 nm
Procedure: The tyrosinase as used herein is an enzyme extracted from mushrooms and purchased from Sigma-Aldrich. Firstly, tyrosine as a substrate is dissolved in distilled water to prepare a 0.3 mg/mL solution, which is added dropwise to a test tube at an amount of 1.0 mL each time. To the solution are added 1.0 mL of a potassium phosphate buffer solution (0.1 mol, pH 6.8) and 0.7 mL of distilled water.
0.2 mL of the sample solution is added to the reactant solution and then allowed to have a reaction in a thermostat container at 37° C. for 10 minutes. In this regards, the control is the reactant solution containing 0.2 mL of a solvent alone in place of each sample solution. The positive control uses ascorbic acid. 0.1 mL of a 2500 unit/mL tyrosinase solution is added to the reactant solution, which is then allowed to have a reaction again in a thermostat container at 37° C. for 10 minutes. The test tube filled with the reactant solution is put into an ice water to cause quenching and thus stop the reaction. The absorbance at 475 nm is measured with a photoelectric spectrophotometer. The tyrosinase inhibitory effect is calculated according to the following mathematical formula 3.

elastase type III = target: T1, elastase type III (Sus scrofa, UniProt P00772); assay: Elastase inhibitory effect; format: biochemical; details: EGCG 250 μM; 25° C., 15 minutes, absorbance 415 nm
T1 construct: purchased Sigma-Aldrich E0127
T1 sequence (P00772 27-266): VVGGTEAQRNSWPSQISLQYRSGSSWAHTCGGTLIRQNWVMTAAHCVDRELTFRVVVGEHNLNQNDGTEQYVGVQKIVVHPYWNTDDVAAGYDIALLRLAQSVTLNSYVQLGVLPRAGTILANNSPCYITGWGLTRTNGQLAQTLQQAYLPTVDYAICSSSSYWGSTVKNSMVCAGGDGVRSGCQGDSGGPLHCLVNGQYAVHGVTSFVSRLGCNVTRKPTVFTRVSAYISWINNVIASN
Procedure: The elastase inhibitory function of the ginsenoside F2 is measured in comparison with that of EGCG. The elastase and the substrate used herein are purchased from Sigma-Aldrich, U.S.A. (Cat. No. E0127).
The elastase inhibitory function is measured according to the following method.
In a 96-well plate, ginsenoside F2 (200 μL) and 50 μL of a 20 μg/mL elastase type III solution are mixed with a […] tris-HCL buffer solution (pH 8.0). The positive control is EGCG 250 μM, and the negative control which is a non-treated group is distilled water. Then, 100 μL of 0.4514 mg/mL N-succinyl-ala-ala-ala-p-nitroanilide prepared with the buffer solution is added to the mixture and allowed to react at 25° C. for 15 minutes. After completion of the reaction, the absorbance at 415 nm was measured. The blank test is performed in the same manner as described above to achieve calibration verification.
The elastase inhibitory function is calculated according to the following mathematical formula 1, and the results are presented in Table 2.
Elastase inhibition rate (%)={1−(C−D)/(A−B)}×100 [Mathematical Formula 1]
A: Absorbance at 415 nm with enzyme and no test substance.
B: Absorbance at 415 nm with no test substance and no enzyme.
C: Absorbance at 415 nm with test substance and enzyme.
D: Absorbance at 415 nm with test substance and no enzyme.

tyrosinase [2] = assay: Tyrosinase expression in melanocytes (Western Blot); format: cell-based; details: 501me1 cell line, IBMX 100 μM, ginsenoside 10 ppm
Procedure: (§1) 501me1 cell line is injected in each well of a 6-well microtiter plate at a rate of 500,000 cells/well. The cell line in each well is treated with 0.1% of DMSO as the negative control group, 100 μM of IBMX as the positive control group, or ginsenoside 10 ppm of F2 as the test group, and cultured at 37° C. for 24 hours, 48 hours, or 72 hours, to obtain proteins. The proteins thus obtained are subjected to Western Blot using MITF and tyrosinase antibodies. Protein extraction and Western Blot are performed using the standard methods known in the art.

[3] = tested on: mouse with vitiligo (C57b1/6-Mitf^mi-vit); assay: Grey hair prevention: melanin in newly grown hair of mouse with vitiligo; format: in vivo; details: applied twice a day, about 3 weeks, 50 mM IBMX, 2.5% ginsenoside F2
Procedure: A mouse with vitiligo (C57b1/6-Mitf^mi-vit) is purchased from The Jackson Lab in U.S.A. The testing method on the grey hair inhibitory effect using a mouse with lots of grey hair is carried out as follows. A 12-week old mouse is subjected to depilation on the back side. The area of the depilated region is controlled to be the same to every object. From the next day of the depilation, the grey hair inhibitory substances are applied on the depilated region twice a day. The vehicle for the grey hair inhibitory substances is the mixture of EtOH, 1,3-BG and DW (3:2:5 in volume ratio). The liquid containing the vehicle alone is the negative control, the liquid containing the vehicle in combination with 50 mM IBMX is the positive control, and the liquid containing the vehicle in combination with 2.5% ginsenoside F2 is the test group. When the difference in the grey hair inhibitory effect between the substances is visually recognizable in about 3 weeks, the newly grown hair is collected to measure the quantity of melanin produced in the hair. The quantity of melanin in the hair is measured using esperase (Novozyme) strains that are a protein hydrolase. Esperase is dissolved in a buffer solution (50 mM tris-HCl, 5 mM DTT, pH 9.3) to a concentration of 1 NPU/ml to prepare a reaction buffer. 5 mg of mouse hair is put in 1 ml of the reaction buffer, which is stirred at a speed of 1,000 rpm at 37° C. for 13 hours to cause the reaction and then subjected to a momentary centrifugal isolation to separate the reactant solution from hair. The reactant solution thus obtained is placed in each well of a 96-well plate, and the absorbance at 405 nm is measured to determine the amount of melanin in the reactant solution. When a mouse with vitiligo and lots of grey hair is treated with the negative control substance, the positive control substance, or the test substance, the efficacies are visually observed, and the melanin in hair is quantitatively analyzed.

MITF = MITF expression in melanocytes (Western Blot); format: cell-based; details: 501me1 cell line, IBMX 100 μM, ginsenoside 10 ppm
Procedure: as §1

Melanin-a cells = assay: Melanogenesis promotion in Melanin-a cells; format: cell-based; details: 100 μM, 3 days; DMSO (0.1%) = 100
Procedure: Melanin-a cells are injected in a 24-well microtiter plate at a rate of 50,000 cells per well with an RPMI medium containing 5% fetal bovine serum, 100 IU penicillin G, and 0.2 μM TPA. Next day, the cells are treated with ginsenoside F2 as a test substance independently at the final concentration of 10 ppm or 50 ppm. The negative control is treated with 0.1% DMSO, and the positive control is treated with 100 μM IBMX. Then, the cells are cultured at 37° C. for 3 days. The wells of the plate are washed with PBS, and 100 μl of 1N NaOH is added to each well to dissolve melanin in the cells. The absorbance of the dissolved melanin is measured at 405 nm with a microplate reader. The effect of the ginsenoside F2 to promote melanogenesis is evaluated in comparison with that of the control groups.

B16/F10 melanoma cells = assay: Melanogenesis inhibition in B16/F10 melanoma cells; format: cell-based; details: sample containing 0.001 wt. % of test substance; 3-day cultivation
Procedure: As a test substance, a sample containing 0.001 wt. % of ginsenoside F2 or kojic acid is added to a culture medium of B16/F10 melanoma cells (available from Korean Cell Line Bank) at a predetermined concentration. The culture medium is eliminated after 3-day cultivation. The cells are washed with PBS and dissolved in 1N NaOH. Then, the absorbance at 405 nm is measured. The control is the cells not treated with any test substance. In comparison with the melanin content in the control group, the inhibitory ability of each test substance against melanogenesis is measured. […] [formula]

[4] = tested on: potassium ion channels (KATP channels); assay: KATP channel opener test: recovery of NIH3T3 proliferation blocked by tolbutamide (WST-1); format: cell-based, mouse; details: 10 μM minoxidil after 2.5 mM tolbutamide, 48 hours
Excerpt: Minoxidil, a treatment for hair loss, is known as a potassium ion channel opener (KATP channel opener) potentially acting on mitochondria and a representative drug used for treatment of androgenic alopecia (hair loss). A testing method used to evaluate the action of minoxidil includes treating with tolbutamide (SIGMA-ALDRICH, T0891) blocking the potassium ion channels (KATP channels) in fibroblasts constituting the corium of scalp to inhibit cell proliferation and then opening the potassium ion channels (KATP channels) to resume the cell proliferation. In order to evaluate the function of the composition of the present invention as a KATP channel opener, the present invention uses a mouse embryonic fibroblast cell line, NIH3T3, as fibroblasts. The cell line is obtained by naturally immortalizing a fibroblast cell line isolated from an NIH Swiss mouse embryo with 3T3 protocol. The cell line is cultured with DMEM (Dulbecco's modified eagle's medium, Gibco BRL, Gaithersburg, Md., U.S.A.) containing 10% FBS (Fetal Bovine Serum) in an incubator under the conditions of 5% CO2 and 37° C. for 24 hours.

5α-reductase = target: T2, 5α-reductase (Homo sapiens, UniProt P31213); assay: 5α-reductase activity inhibition, conversion of [14C]testosterone to DHT in HEK293-5α R2 cells; format: cell-based; details: 2 hours
T2 construct: 3×FLAG; expressed in transfected cells; host or cells: HEK293
T2 sequence (P31213 1-254): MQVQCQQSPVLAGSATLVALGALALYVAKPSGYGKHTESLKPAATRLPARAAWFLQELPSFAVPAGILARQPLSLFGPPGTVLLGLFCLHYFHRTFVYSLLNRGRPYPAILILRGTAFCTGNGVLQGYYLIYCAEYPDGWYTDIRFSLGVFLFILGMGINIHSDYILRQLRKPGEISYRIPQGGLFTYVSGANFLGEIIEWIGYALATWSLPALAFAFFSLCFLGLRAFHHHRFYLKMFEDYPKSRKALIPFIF
Procedure: In order to evaluate the inhibitory effect on the activity of 5α-reductase, the conversion rate from [^14C]testosterone to [^14C]dihydrotestosterone (DHT) in HEK293-5α R2 cells is measured. P3×FLAG-CMV-5α R2 is transduced into HEK293 cells, which are cultured in a 24-well plate at a rate of 2.5×10^5 cells per well (Park et al., 2003, JDS. Vol. 31, pp. 191-98). The next day, the used culture medium is replaced with a new culture medium containing an enzyme substrate and an inhibitor. The substrate of the culture medium is 0.05 μCi [^14C]testosterone (Amersham Pharmacia Biotech, UK).
To evaluate the degree of 5α-reductase activity inhibition, the cells are treated with ginsenoside F2 and then cultured in a 5% CO2 incubator at 37° C. for 2 hours. In this regard, the negative control is the group not treated with ginsenoside F2, while the positive control is the group treated with finasteride. Subsequently, the culture medium is collected to extract steroids with 800 μl of ethylacetate, and the supernatant organic solvent phase is isolated and dried. The residue is dissolved in 50 μl of ethylacetate and developed on silica plastic sheet kieselgel 60 F254 using an ethylacetate-hexane (1:1) solvent.
The plastic sheet is dried out in the air and measured in regards to the abundance of isotope using a bath system. The dry plastic sheet together with an X-ray film is put in a bath cassette. After one week, the abundance of isotope of testosterone and dihydrotestosterone remaining on the film is measured to calculate the conversion rate and the inhibition rate according to the following mathematical formulas 5 and 6, respectively.

collagenase (MMP-1) = assay: Collagenase (MMP-1) expression in human fibroblasts (ELISA); format: cell-based; details: 10 μg/mL for 24 hours; not treated control = 100
Procedure: The ginsenoside F2 of the present invention is measured in regards to the inhibitory effect on the generation of collagenase in comparison with retinoic acid. […] The human fibroblasts are treated with ginsenoside F2 or retinoic acid at a concentration of 10 μg/mL for 24 hours. Then, the cell culture medium is collected. The production yield of collagenase in the collected cell culture medium is measured using a collagenase measurement instrument commercially available (Catalog #. RPN 2610, USA Amersham Pharma Inc.). Firstly, the collected cell culture medium is put in each well of a 96-well plate uniformly coated with the primary collagenase antibodies and then subjected to antigen-antibody reactions in a thermostat container for 3 hours. After 3 hours, the secondary collagenase antibodies coupled to the chromophore groups are put in each well of the 96-well plate and then allowed to react for more 15 minutes. […] The intensity of yellowness in the reaction mixture is varied depending on the progress of the reaction. The absorbance of the yellow-colored 96-well plate is measured at 405 nm with a spectrophotometer, and the expression level of collagenase is calculated according to the following mathematical formula 2. In this regard, the absorbance of the cell culture medium collected from the group not treated with the composition of the present invention is considered as the absorbance of the control. [formula]

[5] = tested on: procollagen type (I) in fibroblasts; assay: Collagen biosynthesis in fibroblasts (procollagen type (I) ELISA); format: cell-based; details: 10 ng/ml, 24 hours; non-treated group = 100%
Procedure: The ginsenoside F2 of the present invention is compared with TGF-β in regards to the effect of promoting biosynthesis of collagen. Firstly, fibroblasts are seeded in 24 wells at a rate of 10^5 per well and cultured until the growth reaches 90%. The fibroblasts are cultured in a non-serum culture medium for 24 hours, treated with each 10 ng/ml of ginsenoside F2 or TGF-β dissolved in the non-serum culture medium, and then cultured in a CO2 incubator for 24 hours. The supernatant liquid is collected to determine an increase or decrease of procollagen using a procollagen type (I) ELISA kit. The collagen synthesis ability is denoted with respect to 100% for the non-treated group.

Tyrosinase inhibition rate (%) (tyrosinase [1]): 52%
Molecule: O=C1O[C@H]([C@@H](O)CO)C(O)=C1O [Ascorbic acid, ascorbic acid]

Inhibition rate (%) (elastase) (elastase type III): 65%
Molecule: O=C(O[C@@H]1Cc2c(O)cc(O)cc2O[C@@H]1c1cc(O)c(O)c(O)c1)c1cc(O)c(O)c(O)c1 [EGCG]

Molecule: CC(C)Cn1c(=O)n(C)c(=O)c2[nH]cnc21 [IBMX]
Tyrosinase (Western Blot, in comparison with 100 of the negative control group) (tyrosinase [2]; 24 hrs): 160 | Tyrosinase (Western Blot, in comparison with 100 of the negative control group) (tyrosinase [2]; 48 hrs): 149 | Tyrosinase (Western Blot, in comparison with 100 of the negative control group) (tyrosinase [2]; 72 hrs): 298 | Amount of melanin (%) with respect to control [3]: 105.9% | MITF (Western Blot, in comparison with 100 of the negative control group) (MITF; 24 hrs): 121 | MITF (Western Blot, in comparison with 100 of the negative control group) (MITF; 48 hrs): 98 | MITF (Western Blot, in comparison with 100 of the negative control group) (MITF; 72 hrs): 224 | Yield of Melanin (%) (Melanin-a cells): 120%

Molecule: O=c1cc(CO)occ1O [Kojic acid, kojic acid]
Melanogenesis inhibition rate (%) (B16/F10 melanoma cells): 53%

Molecule: Nc1cc(N2CCCCC2)nc(N)[n+]1[O-] [Minoxidil]
Cell proliferation ability (%) [4]: 132%

Inhibition rate (%) (5α-reductase; 5α-reductase activity): 42.5% | Conversion rate (%) (5α-reductase; testosterone to dihydrotestosterone): 27.6%
Molecule: CC(C)(C)NC(=O)[C@H]1CC[C@H]2[C@@H]3CC[C@H]4NC(=O)C=C[C@]4(C)[C@H]3CC[C@]12C [Positive control, finasteride, reference compound]

Molecule: CC1=C(/C=C/C(C)=C/C=C/C(C)=C/C(=O)O)C(C)(C)CCC1 [Retinoic acid, retinoic acid]
Collagenase expression level(%) (collagenase (MMP-1)): 75%

Molecule: TGF-β
Collagen synthesis ability (%) [5]: 183.5%
